Legend:
E. coli = test: Direct binding Salmonella assay (chemiluminescence immunosorbent)
S. aberdeen = test: as above; conditions: for signal, direct binding Salmonella assay: conjugate 1:100; for signal, release and detection of core oligosaccharide: 0.1% SDS

CCCCCCCCCCCCOS(=O)(=O)[O-].[Na+] [SDS, sodium dodecyl sulphate]
signal, direct binding Salmonella assay (E. coli; 0% SDS, conjugate 1:100, 10^6 E. coli, black and white plates): 579 ± 37
signal, direct binding Salmonella assay (E. coli; 0.1% (w/v) SDS, conjugate 1:100, 10^6 E. coli, white plate, Lucy I): 4,151 ± 256^
signal, direct binding Salmonella assay (E. coli; 0.1% SDS (first block), conjugate 1:100, 10^6 E. coli, black and white plates): 579 ± 37
signal, direct binding Salmonella assay (E. coli; 0.1% SDS (second block), conjugate 1:100, 10^6 E. coli, black and white plates): 658 ± 108
signal, direct binding Salmonella assay (E. coli; 0.2% (w/v) SDS, conjugate 1:100, 10^6 E. coli, white plate, Lucy I): 3,322 ± 479
signal, direct binding Salmonella assay (E. coli; 0.3% SDS, conjugate 1:100, 10^6 E. coli, white plate, Lucy I): 2,491 ± 107
signal, direct binding Salmonella assay (E. coli; 0.4% SDS, conjugate 1:100, 10^6 E. coli, white plate, Lucy I): 3,197 ± 5
signal, direct binding Salmonella assay (E. coli; 0.5% (w/v) SDS (first block), conjugate 1:100, 10^6 E. coli, black and white plates): 684 ± 88
signal, direct binding Salmonella assay (E. coli; 0.5% (w/v) SDS, conjugate 1:50, E. coli 10^6, black and white plate, tube luminometer): 958 ± 242
signal, direct binding Salmonella assay (E. coli; 0.5% SDS (second block), conjugate 1:100, 10^6 E. coli, black and white plates): 714 ± 74
signal, direct binding Salmonella assay (E. coli; 0.5% SDS, conjugate 1:100, 10^6 E. coli, black and white plate, tube luminometer): 922 ± 78
signal, direct binding Salmonella assay (E. coli; 0.5% SDS, conjugate 1:100, 10^6 E. coli, white plate, Lucy I): 4,574 ± 1,885
signal, direct binding Salmonella assay (E. coli; 0.5% SDS, conjugate 1:150, 10^6 E. coli, black and white plate, tube luminometer): 707 ± 11
signal, direct binding Salmonella assay (S. aberdeen; 0% SDS, 2.5 × 10^4 S. aberdeen, black and white plates): 1,617 ± 250
signal, direct binding Salmonella assay (S. aberdeen; 0% SDS, 5 × 10^3 S. aberdeen, black and white plates): 575 ± 120
signal, direct binding Salmonella assay (S. aberdeen; 0% SDS, 5 × 10^4 S. aberdeen, black and white plates): 2,027 ± 206
signal, direct binding Salmonella assay (S. aberdeen; 0% SDS, 10^4 S. aberdeen, black and white plates): 1,102 ± 357
signal, direct binding Salmonella assay (S. aberdeen; 0% SDS, 10^5 S. aberdeen, black and white plates): 3,131 ± 121
signal, direct binding Salmonella assay (S. aberdeen; 0% SDS, 10^6 S. aberdeen, black and white plates): 24,566 ± 4,287
signal, direct binding Salmonella assay (S. aberdeen; 0% SDS, Peptone, black and white plates): 643 ± 54
signal, direct binding Salmonella assay (S. aberdeen; 0.1% (w/v) SDS, 2.5 × 10^4 S. aberdeen, white plate, Lucy I): 28,622 ± 2,162
signal, direct binding Salmonella assay (S. aberdeen; 0.1% (w/v) SDS, 5 × 10^3 S. aberdeen, white plate, Lucy I): 8,536 ± 1,520
signal, direct binding Salmonella assay (S. aberdeen; 0.1% (w/v) SDS, 5 × 10^4 S. aberdeen, white plate, Lucy I): 51,909 ± 3,036
signal, direct binding Salmonella assay (S. aberdeen; 0.1% (w/v) SDS, 10^4 S. aberdeen, white plate, Lucy I): 11,324 ± 2,770
signal, direct binding Salmonella assay (S. aberdeen; 0.1% (w/v) SDS, 10^5 S. aberdeen, white plate, Lucy I): 143,796 ± 4,297
signal, direct binding Salmonella assay (S. aberdeen; 0.1% (w/v) SDS, 10^6 S. aberdeen, white plate, Lucy I): 356,444 ± 102,877
signal, direct binding Salmonella assay (S. aberdeen; 0.1% (w/v) SDS, Peptone, white plate, Lucy I): 4,288 ± 1.653
signal, direct binding Salmonella assay (S. aberdeen; 0.1% SDS (first block), 2.5 × 10^4 S. aberdeen, black and white plates): 1,277 ± 211
signal, direct binding Salmonella assay (S. aberdeen; 0.1% SDS (first block), 5 × 10^3 S. aberdeen, black and white plates): 591 ± 1
signal, direct binding Salmonella assay (S. aberdeen; 0.1% SDS (first block), 5 × 10^4 S. aberdeen, black and white plates): 1,297 ± 4
signal, direct binding Salmonella assay (S. aberdeen; 0.1% SDS (first block), 10^4 S. aberdeen, black and white plates): 1,662 ± 531
signal, direct binding Salmonella assay (S. aberdeen; 0.1% SDS (first block), 10^5 S. aberdeen, black and white plates): 2,386 ± 263
signal, direct binding Salmonella assay (S. aberdeen; 0.1% SDS (first block), 10^6 S. aberdeen, black and white plates): 16,738 ± 1051
signal, direct binding Salmonella assay (S. aberdeen; 0.1% SDS (first block), Peptone, black and white plates): 643 ± 54
signal, direct binding Salmonella assay (S. aberdeen; 0.1% SDS (second block), 2.5 × 10^4 S. aberdeen, black and white plates): 1,442 ± 28^
signal, direct binding Salmonella assay (S. aberdeen; 0.1% SDS (second block), 5 × 10^3 S. aberdeen, black and white plates): 678 ± 40
signal, direct binding Salmonella assay (S. aberdeen; 0.1% SDS (second block), 5 × 10^4 S. aberdeen, black and white plates): 2321 ± 437
signal, direct binding Salmonella assay (S. aberdeen; 0.1% SDS (second block), 10^4 S. aberdeen, black and white plates): 930 ± 21
signal, direct binding Salmonella assay (S. aberdeen; 0.1% SDS (second block), 10^5 S. aberdeen, black and white plates): 4,654 ± 636
signal, direct binding Salmonella assay (S. aberdeen; 0.1% SDS (second block), 10^6 S. aberdeen, black and white plates): 28,169 ± 1516
signal, direct binding Salmonella assay (S. aberdeen; 0.1% SDS (second block), Peptone, black and white plates): 503 ± 76
signal, release and detection of core oligosaccharide (S. aberdeen; 10^1 bacteria (species not given)): 10248 relative light units
signal, release and detection of core oligosaccharide (S. aberdeen; 10^2 bacteria (species not given)): 9525 relative light units
signal, release and detection of core oligosaccharide (S. aberdeen; 10^3 bacteria (species not given)): 12375 relative light units
signal, release and detection of core oligosaccharide (S. aberdeen; 10^4 bacteria (species not given)): 65960 relative light units
signal, release and detection of core oligosaccharide (S. aberdeen; 10^5 bacteria (species not given)): 717259 relative light units
signal, release and detection of core oligosaccharide (S. aberdeen; 10^6 bacteria (species not given)): 895811 relative light units
signal, direct binding Salmonella assay (S. aberdeen; 0.2% (w/v) SDS, 2.5 × 10^4 S. aberdeen, white plate, Lucy I): 27,339 ± 2,635
signal, direct binding Salmonella assay (S. aberdeen; 0.2% (w/v) SDS, 5 × 10^3 S. aberdeen, white plate, Lucy I): 10,334 ± 2,264
signal, direct binding Salmonella assay (S. aberdeen; 0.2% (w/v) SDS, 5 × 10^4 S. aberdeen, white plate, Lucy I): 75,900 ± 5,798
signal, direct binding Salmonella assay (S. aberdeen; 0.2% (w/v) SDS, 10^4 S. aberdeen, white plate, Lucy I): 11,098 ± 828^
signal, direct binding Salmonella assay (S. aberdeen; 0.2% (w/v) SDS, 10^5 S. aberdeen, white plate, Lucy I): 112,096 ± 3,841
signal, direct binding Salmonella assay (S. aberdeen; 0.2% (w/v) SDS, 10^6 S. aberdeen, white plate, Lucy I): 365,496 ± 12,729
signal, direct binding Salmonella assay (S. aberdeen; 0.2% (w/v) SDS, Peptone, white plate, Lucy I): 3,904 ± 59^
signal, direct binding Salmonella assay (S. aberdeen; 0.3% SDS, 2.5 × 10^4 S. aberdeen, white plate, Lucy I): 38,450 ± 1,411
signal, direct binding Salmonella assay (S. aberdeen; 0.3% SDS, 5 × 10^3 S. aberdeen, white plate, Lucy I): 14,313 ± 2,881
signal, direct binding Salmonella assay (S. aberdeen; 0.3% SDS, 5 × 10^4 S. aberdeen, white plate, Lucy I): 123,881 ± 15,994
signal, direct binding Salmonella assay (S. aberdeen; 0.3% SDS, 10^4 S. aberdeen, white plate, Lucy I): 14,314 ± 617^

Reference: patent US20110159515A1, “COMPOSITIONS AND METHODS FOR THE RAPID GROWTH AND DETECTION OF MICROORGANISMS” (SOLUS SCIENTIFIC SOLUTIONS LIMITED, priority 2008, published 2011)
